For orientation: EC50 means the concentration at which the effect is half-maximal.

The record followed here is US12503436B2, “Compounds and compositions for treating conditions associated with STING activity” (NOVARTIS PHARMA AG, priority 2021, dated 2025).

Sequence of STING (Q86WV6 whole entry R71H/G230A/H232R/R293Q): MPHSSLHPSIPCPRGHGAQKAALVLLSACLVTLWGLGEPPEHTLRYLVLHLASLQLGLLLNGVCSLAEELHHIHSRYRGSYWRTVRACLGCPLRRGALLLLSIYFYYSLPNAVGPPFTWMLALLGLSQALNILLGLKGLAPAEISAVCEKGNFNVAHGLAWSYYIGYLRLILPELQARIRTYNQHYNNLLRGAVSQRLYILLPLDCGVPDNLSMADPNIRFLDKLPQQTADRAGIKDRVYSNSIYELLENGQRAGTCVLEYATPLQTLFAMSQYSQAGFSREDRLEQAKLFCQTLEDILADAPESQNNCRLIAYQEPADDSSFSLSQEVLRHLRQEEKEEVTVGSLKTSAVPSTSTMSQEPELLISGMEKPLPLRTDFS

The assay addresses STING (Homo sapiens, UniProt Q86WV6, G230A/H232R/R293Q/R71H). Nature of the assay: STING reporter assay in THP1-Dual KO-IFNAR2 cells (2′3′cGAMP stimulation, luciferase reporter). The settings on record: 15 μM 2′3′cGAMP stimulation, 24 h, read-out: Pharmaron, THP1_IFNAR2 STING 24 h Luci Normalized: GeoMean EC50. Type of assay: cell-based. The method, then: STING pathway activation by the compounds described herein was measured using THP1-Dual™ cells (KO-IFNAR2).
THP1-Dual™ KO-IFNAR2 Cells (obtained from InvivoGen) were maintained in RPMI, 10% FCS, 5 ml P/S, 2 mM L-glut, 10 mM Hepes, and 1 mM sodium pyruvate. Compounds were spotted in empty 384 well tissue culture plates (Greiner 781182) by Echo for a final concentration of 0.0017-100 μM. Cells were plated into the TC plates at 40 μL per well, 2×10E6 cells/mL. For activation with STING ligand, 2′3′cGAMP (MW 718.38, obtained from Invivogen), was prepared in Optimem media.
The following solutions were prepared for each 1×384 plate: • Solution A: 2 mL Optimem with one of the following stimuli: • 60 μL of 10 mM 2′3′cGAMP→150 μM stock • Solution B: 2 mL Optimem with 60 μL Lipofectamine 2000→Incubate 5 min at RT
2 mL of solution A and 2 ml Solution B was mixed and incubated for 20 min at room temperature (RT). 20 μL of transfection solution (A+B) was added on top of the plated cells, with a final 2′3′cGAMP concentration of 15 μM. The plates were then centrifuged immediately at 340 g for 1 minute, after which they were incubated at 37° C., 5% CO2, >98% humidity for 24 h. Luciferase reporter activity was then measured. EC50 values were calculated by using standard methods known in the art.
Luciferase reporter assay: 10 μL of supernatant from the assay was transferred to white 384-plate with flat bottom and squared wells. One pouch of QUANTI-Luc™ Plus was dissolved in 25 mL of water. 100 μL of QLC Stabilizer per 25 mL of QUANTI-Luc™ Plus solution was added. 50 μL of QUANTI-Luc™ Plus/QLC solution per well was then added. Luminescence was measured on a Platereader (e.g., Spectramax I3X (Molecular Devices GF3637001)).
Luciferase reporter activity was then measured. EC50 values were calculated by using standard methods known in the art.
On the technique in general: A reporter such as luciferase makes a cellular process visible.
In the case of “1-fluoro-N-(5-(2-((3aR,5r,6aS)-2-(2,2,2-trifluoroethyl)octahydrocyclopenta[c]pyrrol-5-yl)ethoxy)-1H-indol-3-yl)cyclopropane-1-carboxamide [Compound 371]”, the EC50 was 0.2 to 1 µM. The value for “2,2-dimethyl-N-(5-(2-((3aR,5r,6aS)-2-(2,2,2-trifluoroethyl)octahydrocyclopenta[c]pyrrol-5-yl)ethoxy)-1H-indol-3-yl)cyclopropane-1-carboxamide [Compound 368]” was 0.2 to 1 µM. For the compound “3,3-dimethyl-N-(5-(2-((3aR,5r,6aS)-2-(2,2,2-trifluoroethyl)octahydrocyclopenta[c]pyrrol-5-yl)ethoxy)-1H-indol-3-yl)butanamide [Compound 339]”, the EC50 fell in the range of 0.2 to 1 µM. Turning to “3-(hydroxymethyl)-N-(5-(2-((3aR,5r,6aS)-2-(2,2,2-trifluoroethyl)octahydrocyclopenta[c]pyrrol-5-yl)ethoxy)-1H-indol-3-yl)cyclobutane-1-carboxamide [Compound 343]”, the EC50 is 0.2 to 1 µM. The value for “3-chloro-N-(5-(2-((3aR,5r,6aS)-2-(2,2,2-trifluoroethyl)octahydrocyclopenta[c]pyrrol-5-yl)ethoxy)-1H-indol-3-yl)cyclobutane-1-carboxamide [Compound 342]” was 0.2 to 1 µM; that for “3-hydroxy-N-(5-(2-((3aR,5r,6aS)-2-(2,2,2-trifluoroethyl)octahydrocyclopenta[c]pyrrol-5-yl)ethoxy)-1H-indol-3-yl)cyclobutane-1-carboxamide [Compound 347]” was 0.2 to 1 µM; that for “3-methyl-N-(5-(2-((3aR,5r,6aS)-2-(2,2,2-trifluoroethyl)octahydrocyclopenta[c]pyrrol-5-yl)ethoxy)-1H-indol-3-yl)oxetane-3-carboxamide [Compound 382]” was 0.2 to 1 µM.

Turning to `CC(=O)Nc1c[nH]c2ccc(O[C@@H]3C[C@H](c4ccc(C(F)(F)F)cc4)C3(C)C)cc12` (relative stereo) [Compound 432, N-(5-(cis-2,2-dimethyl-3-(4-(trifluoromethyl)phenyl)cyclobutoxy)-1H-indol-3-yl)acetamide], the EC50 was 1 to 5 µM. As for `O=C(Nc1c[nH]c2ccc(CC(O)Cc3ccc(C(F)(F)F)cc3)cc12)C1CC1` (single isomer, unassigned) [Compound 200, N-(5-(2-hydroxy-3-(4-(trifluoromethyl)phenyl)propyl)-1H-indol-3-yl)cyclopropanecarboxamide], the EC50 is 0.2 to 1 µM. The value for `O=C(Nc1c[nH]c2ccc(CC(O)Cc3ccc(C(F)(F)F)cc3)cc12)C1CC1` (single isomer, unassigned) [Compound 201, N-(5-(2-hydroxy-3-(4-(trifluoromethyl)phenyl)propyl)-1H-indol-3-yl)cyclopropanecarboxamide] was 0.2 to 1 µM. The value for `CC(=O)Nc1c[nH]c2ccc(OCCC3CCCN(CC(F)(F)F)C3)cc12` (single isomer, unassigned) [Compound 279] was 1 to 5 µM; that for `CC(=O)Nc1c[nH]c2ccc(OCCC3CCCN(CC(F)(F)F)C3)cc12` (single isomer, unassigned) [Compound 280] was 1 to 5 µM; that for `CC(=O)Nc1c[nH]c2ccc(OC(C)Cc3ccc(C(F)(F)F)cc3)cc12` (single isomer, unassigned) [Compound 285, N-(5-((1-(4-(trifluoromethyl)phenyl)propan-2-yl)oxy)-1H-indol-3-yl)acetamide] was 1 to 5 µM. The value for `CC(=O)Nc1c[nH]c2ccc(OC(C)Cc3ccc(C(F)(F)F)cc3)cc12` (single isomer, unassigned) [Compound 286, N-(5-((1-(4-(trifluoromethyl)phenyl)propan-2-yl)oxy)-1H-indol-3-yl)acetamide] was 1 to 5 µM. On to `C[C@]1(C(=O)Nc2c[nH]c3ccc(O[C@H]4C[C@H](c5ccc(C(F)(F)F)cc5)C4)cc23)CC[C@H](O)CC1` (single isomer, unassigned) [Compound 425, trans-4-hydroxy-1-methyl-N-(5-(trans-3-(4-(trifluoromethyl)phenyl)cyclobutoxy)-1H-indol-3-yl)cyclohexane-1-carboxamide], for which the EC50 lay in the range of 0.2 to 1 µM. The value for `C[C@]1(C(=O)Nc2c[nH]c3ccc(O[C@H]4C[C@H](c5ccc(C(F)(F)F)cc5)C4)cc23)CC[C@@H](O)CC1` (single isomer, unassigned) [Compound 426, cis-4-hydroxy-1-methyl-N-(5-(trans-3-(4-(trifluoromethyl)phenyl)cyclobutoxy)-1H-indol-3-yl)cyclohexane-1-carboxamide] was 0.04 to 0.2 µM; that for `CC(=O)Nc1c[nH]c2ccc(OCC[C@H]3CC[C@@H](C(F)(F)F)CC3)cc12` (single isomer, unassigned) [Compound 454, N-(5-(2-(cis-4-(trifluoromethyl)cyclohexyl)ethoxy)-1H-indol-3-yl)acetamide] was 0.2 to 1 µM; that for `CC(=O)Nc1c[nH]c2ccc(OCC[C@H]3CC[C@H](C(F)(F)F)CC3)cc12` (single isomer, unassigned) [Compound 456, N-(5-(2-(trans-4-(trifluoromethyl)cyclohexyl)ethoxy)-1H-indol-3-yl)acetamide] was 0.2 to 1 µM.

Take `N#C[C@H]1C[C@@H]1C(=O)Nc1c[nH]c2ccc(O[C@H]3C[C@@H](c4ccc(C(F)(F)F)cc4)C3)cc12` (stereo in doubt) [Compound 332, cis-2-cyano-N-(5-(cis-3-(4-(trifluoromethyl)phenyl)cyclobutoxy)-1H-indol-3-yl)cyclopropane-1-carboxamide]: the half-maximal effective concentration (EC50) fell in the range of 0.2 to 1 µM. The value for `CC1(C(=O)Nc2c[nH]c3ccc(OC4CC(c5ccc(C(F)(F)F)nc5)C4)cc23)CC1` (stereo in doubt) [Compound 580, 1-methyl-N-(5-(cis-3-(6-(trifluoromethyl)pyridin-3-yl)cyclobutoxy)-1H-indol-3-yl)cyclopropane-1-carboxamide] was 0.04 to 0.2 µM; that for `CC(=O)Nc1c[nH]c2ccc(COCc3ccc(Cl)c(Cl)c3)cc12` [Compound 101, N-(5-(((3,4-dichlorobenzyl)oxy)methyl)-1H-indol-3-yl)acetamide] was 0.2 to 1 µM; that for `CC(=O)Nc1c[nH]c2ccc(O[C@H]3C[C@@H](c4ccc(C(F)(F)F)cc4)C3)cc12` [Compound 102, N-(5-(cis-3-(4-(trifluoromethyl)phenyl)cyclobutoxy)-1H-indol-3-yl)acetamide] was 0.04 to 0.2 µM.

Take `CC(=O)Nc1c[nH]c2ccc(O[C@H]3C[C@H](c4ccc(C(F)(F)F)cc4)C3)cc12` [Compound 103, N-(5-(trans-3-(4-(trifluoromethyl)phenyl)cyclobutoxy)-1H-indol-3-yl)acetamide]: the 50% effective concentration (EC50) was 0.04 to 0.2 µM. Consider `CC(=O)Nc1c[nH]c2ccc(OCCC3CCN(c4ccc(C(F)(F)F)cc4)CC3)cc12` [Compound 104, N-(5-(2-(1-(4-(trifluoromethyl)phenyl)piperidin-4-yl)ethoxy)-1H-indol-3-yl)acetamide], for which the EC50 lay within 0.2 to 1 µM. Turning to `CC(=O)Nc1c[nH]c2ccc(OCC(F)C3CCN(CC(F)(F)F)CC3)cc12` (stereo not shown) [Compound 105, N-(5-(2-fluoro-2-(1-(2,2,2-trifluoroethyl)piperidin-4-yl)ethoxy)-1H-indol-3-yl)acetamide], the EC50 lay within 1 to 5 µM. As for `CC(=O)Nc1c[nH]c2ccc(COCc3cccc(C(F)(F)F)c3)cc12` [Compound 106, N-(5-(((3-(trifluoromethyl)benzyl)oxy)methyl)-1H-indol-3-yl)acetamide], the EC50 was 0.2 to 1 µM. For `COCC(=O)Nc1c[nH]c2ccc(OCCc3ccc(C(F)(F)F)cc3)cc12` [Compound 107, 2-methoxy-N-(5-(4-(trifluoromethyl)phenethoxy)-1H-indol-3-yl)acetamide], the EC50 was in the range of 0.04 to 0.2 µM. The value for `CC(=O)Nc1c[nH]c2ccc(OCC(C)(C)C3CCN(CC(F)(F)F)CC3)cc12` [Compound 108, N-(5-(2-methyl-2-(1-(2,2,2-trifluoroethyl)piperidin-4-yl)propoxy)-1H-indol-3-yl)acetamide] was 5 to 100 µM; that for `O=C(Nc1c[nH]c2ccc(COCc3ccc(C(F)(F)F)cc3)cc12)C1CCC1` [Compound 109, N-(5-(((4-(trifluoromethyl)benzyl)oxy)methyl)-1H-indol-3-yl)cyclobutanecarboxamide] was 0.04 to 0.2 µM. In the case of `CC(=O)Nc1c[nH]c2ccc(OCC[C@@H]3[C@H]4CN(CC(F)(F)F)C[C@@H]34)cc12` [Compound 110, N-(5-(2-((1R,5S,6s)-3-(2,2,2-trifluoroethyl)-3-azabicyclo[3.1.0]hexan-6-yl)ethoxy)-1H-indol-3-yl)acetamide], the EC50 lay in the range of 0.2 to 1 µM. As for `CC(=O)Nc1c[nH]c2ccc(COCc3ccc(C(F)(F)F)cc3)cc12` [Compound 111, N-(5-(((4-(trifluoromethyl)benzyl)oxy)methyl)-1H-indol-3-yl)acetamide], the EC50 lay in the range of 0.04 to 0.2 µM.
